{"source": "patent US11957783B2", "about": "“Topical immunosensitizers to treat viral and fungal infections” (Squarex, LLC, priority 2018, dated 2024)", "assay_type_in_all_cases": "in vivo, human", "key": {"[1]": {"test": "Rash (erythema) from the sensitization dose (Example 2)", "settings": "pooled treatment groups B and C; placebo 2 of 13", "description": "Visit 1: Upon entering the study, patients are sensitized to squaric acid dibutyl ester (SADBE) by dipping a cotton-tipped swab in a 2% solution of SADBE in DMSO and swabbing a 1 cm^2 area on the forearm. Participants are told then to wait at least 2 weeks for their first treatment."}, "[2]": {"system": "Interleukin 2 Receptor (CD25)", "test": "Plasma level of Interleukin 2 Receptor (CD25)", "settings": "for Interleukin 2 Receptor (CD25) in plasma, number of subjects with undetectable levels / Interleukin 2 Receptor (CD25) in plasma, group average: n = 12; for Interleukin 2 Receptor (CD25) in plasma, number of subjects with undetectable levels: lower limit of detection 9.19 pg/ml; for Interleukin 2 Receptor (CD25) in plasma, group average: undetectable counted as 9.19 pg/ml", "method": "(§1) After a screening visit at which blood was drawn to test for IgG antibody against HSV-1 and subjects were interviewed for inclusion/exclusion criteria, selected subjects returned for blood draws on day 1. After the blood draw on day 1, subjects in group A only were dosed with SADBE. A petrolatum donut was applied with a cotton swab to form about a 1 cm diameter donut on skin on the inner aspect of the upper arm. Then a separate cotton swab was dipped in a 2% SADBE solution (w/v) in DMSO, and the swab was then used to apply about 10-20 mg of solution over about a 1 cm diameter circle within the petrolatum donut. Immediately after application, the application site was covered with TEGADERM. Subjects were advised to remove the TEGADERM and rinse and wipe the spot three hours later. The group A subjects then returned for blood draws on days 15 and 57 and were queried about adverse events on those dates.\n(§2) At this study visit where blood was drawn it was tested for blood cell counts, various cytokine levels, and anti-HSV-1 IgG quantitative levels.\n(§3) All subjects had detectable IL-2 and the large majority had detectable IL-2 receptor.\nFor IL2R the detection limit was 9.19 pg/ml and the number of subjects who measured undetectable are listed. If a subject's IL2R was undetectable, the value of 9.19 pg/ml was used for that subject in detecting the average of the group. No subjects had undetectable IL2."}, "[3]": {"test": "Adverse events after single topical SADBE dose, Phase 1 study (Example 1)", "method": "as §1\nOf the 12 subjects treated, two experienced stinging at the application site, and one had nausea that was ruled possibly related to the study drug."}, "Interleukin 2": {"system": "Interleukin 2", "test": "Plasma level of Interleukin 2", "settings": "for Interleukin 2 in plasma, group average / Interleukin 2 in plasma, number of subjects with undetectable levels: n = 12", "method": "as §1, §2, §3"}}, "data": [{"compound": "CCCCOc1c(OCCCC)c(=O)c1=O", "note": "[SADBE, 3,4-Dibutoxy-3-cyclobutene-1,2-dione]", "values": [{"measurement": "subjects with rash (erythema) from the sensitization dose", "setting": "[1]", "value": "17 of 28"}, {"measurement": "Interleukin 2 Receptor (CD25) in plasma, Sample/A1", "setting": "[2]; A15 / group A day 1", "value": 1.23}, {"measurement": "Interleukin 2 Receptor (CD25) in plasma, Sample minus A1", "setting": "[2]; A15 minus group A day 1", "value": 167.04, "unit": "pg/mL"}, {"measurement": "Interleukin 2 Receptor (CD25) in plasma, Sample/A1", "setting": "[2]; A57 / group A day 1", "value": 0.96}, {"measurement": "Interleukin 2 Receptor (CD25) in plasma, Sample minus A1", "setting": "[2]; A57 minus group A day 1", "value": -26.24, "unit": "pg/mL"}, {"measurement": "Interleukin 2 Receptor (CD25) in plasma, number of subjects with undetectable levels", "setting": "[2]; group A day 15 (A15)", "value": 1}, {"measurement": "Interleukin 2 Receptor (CD25) in plasma, group average", "setting": "[2]; group A day 15 (A15)", "value": 899.81, "unit": "pg/mL"}, {"measurement": "Interleukin 2 Receptor (CD25) in plasma, number of subjects with undetectable levels", "setting": "[2]; group A day 57 (A57)", "value": 0}, {"measurement": "Interleukin 2 Receptor (CD25) in plasma, group average", "setting": "[2]; group A day 57 (A57)", "value": 706.52, "unit": "pg/mL"}, {"measurement": "rashes or delayed-type hypersensitivity reactions", "setting": "[3]; 12 subjects treated", "value": "No rashes or delayed-type hypersensitivity reactions were reported"}, {"measurement": "tolerability of study drug", "setting": "[3]; 12 subjects, single topical 2% SADBE in DMSO on arm", "value": "well tolerated"}, {"measurement": "subjects who experienced stinging at the application site", "setting": "[3]; of the 12 subjects treated", "value": "two"}, {"measurement": "subjects with nausea ruled possibly related to the study drug", "setting": "[3]; of the 12 subjects treated", "value": "one"}, {"measurement": "Interleukin 2 in plasma, Sample/A1", "setting": "Interleukin 2; A15 / group A day 1", "value": 0.96}, {"measurement": "Interleukin 2 in plasma, Sample minus A1", "setting": "Interleukin 2; A15 minus group A day 1", "value": -0.54, "unit": "pg/mL"}, {"measurement": "Interleukin 2 in plasma, Sample/A1", "setting": "Interleukin 2; A57 / group A day 1", "value": 0.84}, {"measurement": "Interleukin 2 in plasma, Sample minus A1", "setting": "Interleukin 2; A57 minus group A day 1", "value": -2.13, "unit": "pg/mL"}, {"measurement": "Interleukin 2 in plasma, group average", "setting": "Interleukin 2; group A day 15 (A15)", "value": 12.90, "unit": "pg/mL"}, {"measurement": "Interleukin 2 in plasma, number of subjects with undetectable levels", "setting": "Interleukin 2; group A day 15 (A15)", "value": 0}, {"measurement": "Interleukin 2 in plasma, group average", "setting": "Interleukin 2; group A day 57 (A57)", "value": 11.30, "unit": "pg/mL"}, {"measurement": "Interleukin 2 in plasma, number of subjects with undetectable levels", "setting": "Interleukin 2; group A day 57 (A57)", "value": 0}]}]}
